Experimental data taken from patent US7375109B2, “Glycine-substituted thieno[2,3-d]pyrimidines with combined LH and FSH agonistic activity” (N.V. Organon, priority 2001, dated 2008).

Assays:
human LH receptor = biological target: T1, human LH receptor (Homo sapiens, UniProt P22888); experiment: CHO-LH in vitro bioactivity (CRE-luciferase reporter); assay type: cell-based; conditions: CHO cells stably transfected with human LH receptor
T1 construct: expressed in transfected cells; host or cells: Chinese Hamster Ovary (CHO) cells, stably transfected; cotransfected with CRE-luciferase reporter
Description: (§1) It has been shown that compounds of the above mentioned formula I show agonistic LH and FSH activity. […] Typically the FSH activity ranges from an activity of about 0.1% of the LH agonist stimulation to about 10% of the LH agonist stimulation.
(§2) LH agonistic activity of compounds were tested in Chinese Hamster Ovary (CHO) cells stably transfected with the human LH receptor and cotransfected with a cAMP responsive element (CRE)/promotor directing the expression of a firefly luciferase reporter gene. Binding of ligand to the Gs-coupled LH receptor will result in an increase of cAMP, which in turn will induce an increased transactivation of the luciferase reporter construct. The luciferase signal was quantified using a luminescence counter. For test compounds, EC50 values (concentration of test compound causing half-maximal (50%) stimulation) were calculated. For that purpose the software program GraphPad PRISM, version 3.0 (GraphPad software Inc., San Diego) was used.

human FSH receptor = biological target: T2, human FSH receptor (Homo sapiens, UniProt P23945); experiment: CHO-FSH in vitro bioactivity (CRE-luciferase reporter); assay type: cell-based; conditions: CHO cells transfected with human FSH receptor and luciferase reporter gene
T2 construct: expressed in transfected cells; host or cells: CHO cells transfected with human FSH receptor and CRE-luciferase reporter
T2 sequence (P23945 18-695): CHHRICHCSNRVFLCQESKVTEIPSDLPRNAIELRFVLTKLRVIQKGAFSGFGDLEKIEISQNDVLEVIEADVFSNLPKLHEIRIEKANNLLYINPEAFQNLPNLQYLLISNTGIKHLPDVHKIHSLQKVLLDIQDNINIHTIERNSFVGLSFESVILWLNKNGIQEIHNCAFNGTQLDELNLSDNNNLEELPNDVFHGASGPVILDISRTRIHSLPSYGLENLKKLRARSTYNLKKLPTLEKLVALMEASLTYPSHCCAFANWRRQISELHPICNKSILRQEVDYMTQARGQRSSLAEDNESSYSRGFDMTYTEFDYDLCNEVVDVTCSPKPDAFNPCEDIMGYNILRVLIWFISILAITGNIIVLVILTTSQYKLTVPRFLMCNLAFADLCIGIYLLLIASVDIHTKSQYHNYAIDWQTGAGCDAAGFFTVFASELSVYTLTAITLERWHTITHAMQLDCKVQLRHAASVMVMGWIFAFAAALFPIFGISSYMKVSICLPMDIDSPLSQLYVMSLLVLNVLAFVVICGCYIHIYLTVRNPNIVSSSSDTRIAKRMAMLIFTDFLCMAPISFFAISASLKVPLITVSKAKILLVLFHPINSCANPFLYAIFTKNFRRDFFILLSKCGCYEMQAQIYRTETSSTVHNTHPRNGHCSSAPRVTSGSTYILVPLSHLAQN
Description: as §1, §2
In a similar way FSH agonistic activity of compounds were tested in CHO cells transfected with the luciferase reporter gene and the human FSH receptor.

immature female mice = experiment: In vivo bioactivity: ovulation induction in immature mice; conditions: immature female mice primed with urinary FSH (Humegon 12.5 IU/animal); 50 mg/kg about 48 hours later; killed 24 hours after treatment
Description: To measure LH in vivo activity of compounds, ovulation induction in immature mice can be studied. In this assay immature female mice are primed with urinary FSH and approximately 48 hours later treated with a LH agonistic compound. The animals are killed after LH agonist treatment and the number of ova in the oviduct is microscopically assessed.
To measure in vivo activity of LH/FSH receptor agonistic compounds ovulation induction in immature mice were studied. In this assay immature female mice were primed with urinary FSH (Humegon 12.5 IU/animal). Approximately 48 hours later the animals were treated with a LH/FSH agonistic compound, the preparation of which is described in examples 1, 4, 9 and 17, at a dose-level of 50 mg/kg. The animals were killed 24 hours after LH/FSH agonist treatment and the number of ova in the oviduct was microscopically assessed. On average 10-15 animals were tested. The mean number of ova amounted 8 with the exception of the compound of example 17 (which was 0.4).

T1 sequence (P22888 27-699): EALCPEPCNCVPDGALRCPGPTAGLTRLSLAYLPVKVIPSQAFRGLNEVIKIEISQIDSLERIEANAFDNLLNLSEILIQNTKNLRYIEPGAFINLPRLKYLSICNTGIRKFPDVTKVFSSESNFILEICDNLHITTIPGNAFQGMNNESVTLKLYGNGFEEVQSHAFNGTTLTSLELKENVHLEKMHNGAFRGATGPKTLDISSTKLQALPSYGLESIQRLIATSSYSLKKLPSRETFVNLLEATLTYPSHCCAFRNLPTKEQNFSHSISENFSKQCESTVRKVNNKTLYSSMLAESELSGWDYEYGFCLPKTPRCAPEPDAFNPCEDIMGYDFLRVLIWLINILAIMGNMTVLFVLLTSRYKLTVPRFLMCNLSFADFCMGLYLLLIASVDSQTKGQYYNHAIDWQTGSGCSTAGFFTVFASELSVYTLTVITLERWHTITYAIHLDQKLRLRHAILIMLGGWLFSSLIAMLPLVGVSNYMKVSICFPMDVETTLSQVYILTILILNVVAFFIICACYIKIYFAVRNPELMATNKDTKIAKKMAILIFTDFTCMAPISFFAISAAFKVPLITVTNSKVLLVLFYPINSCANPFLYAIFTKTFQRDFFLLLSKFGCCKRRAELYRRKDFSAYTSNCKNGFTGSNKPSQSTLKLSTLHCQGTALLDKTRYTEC

| Structure (SMILES) | EC50 (human LH receptor) | EC50 (human FSH receptor) | mean number of ova in the oviduct (immature female mice) |
| --- | --- | --- | --- |
| CCN(CCO)CC(=O)Nc1cccc(-c2nc(-c3ccccc3)nc3sc(C(=O)NC(C)(C)C)c(N)c23)c1 [Example 9, tert-Butyl 5-amino-2-phenyl-4-(3-((N-ethyl-N-(2-hydroxyethyl)-glycinyl)-amino)-phenyl)-thieno[2,3-d]pyrimidine-6-carboxamide] | 4.82 nM | 606 nM | 8 |
| C=CCOc1nc(-c2cccc(NC(=O)CN(CC)CCOC)c2)c2c(N)c(C(=O)NC(C)(C)C)sc2n1 [Example 23, tert-Butyl 5-amino-2-allyloxy-4-(3-((N-ethyl-N-(2-methoxyethyl)-glycinyl)-amino)-phenyl)-thieno[2,3-d]pyrimidine-6-carboxamide] | 36.8 nM | 1740 nM |  |
| CCNc1nc(-c2cccc(NC(=O)CN(CC)CCOC)c2)c2c(N)c(C(=O)NC(C)(C)C)sc2n1 [Example 17, tert-Butyl 5-amino-2-ethylamino-4-(3-((N-ethyl-N-(2-methoxyethyl)-glycinyl)-amino)-phenyl)-thieno[2,3-d]pyrimidine-6-carboxamide] | 10.4 nM | 1250 nM | 0.4 |
| COCCN(CCOC)CC(=O)Nc1cccc(-c2nc(-c3cccs3)nc3sc(C(=O)NC(C)(C)C)c(N)c23)c1 [Example 16, tert-Butyl 5-amino-2-(2-thienyl)-4-(3-((N,N-di-(2-methoxyethyl)-glycinyl)-amino)-phenyl)-thieno[2,3-d]pyrimidine-6-carboxamide] | 21.3 nM | 6810 nM |  |
| C=CCNc1nc(-c2cccc(NC(=O)CNCC(=O)OC)c2)c2c(N)c(C(=O)NC(C)(C)C)sc2n1 [Example 21, tert-Butyl 5-amino-2-allylamino-4-(3-((N-(methoxycarbonylmethyl)-glycinyl)-amino)-phenyl)-thieno[2,3-d]pyrimidine-6-carboxamide] | 57 nM | 560 nM |  |
| CC(C)(C)NC(=O)c1sc2nc(-c3ccncc3)nc(-c3cccc(NC(=O)CNC(C)(C)CO)c3)c2c1N [Example 25, tert-Butyl 5-amino-2-(4-pyridyl)-4-(3-((N-(1-hydroxy-2-methyl-prop-2-yl) -glycinyl)-amino)-phenyl)-thieno[2,3-d]pyrimidine-6-carboxamide] | 34.7 nM | 400 nM |  |
| CCN(CCOC)CC(=O)Nc1cccc(-c2nc(NC(C)C)nc3sc(C(=O)NC(C)(C)C)c(N)c23)c1 [Example 20, tert-Butyl 5-amino-2-isopropylamino-4-(3-((N-ethyl-N-(2-methoxyethyl)-glycinyl)-amino)-phenyl)-thieno[2,3-d]pyrimidine-6-carboxamide] | 42.4 nM | 2950 nM |  |
| CC(C)(C)NC(=O)c1sc2nc(-c3ccco3)nc(-c3cccc(NC(=O)CNC(C)(C)CO)c3)c2c1N [Example 12] | 11.8 nM | 2970 nM |  |
| COCCN(CCOC)CC(=O)Nc1cccc(-c2nc(-c3ccncc3)nc3sc(C(=O)NC(C)(C)C)c(N)c23)c1 [Example 26, tert-Butyl 5-amino-2-(4-pyridyl)-4-(3-((N,N-bis-(2-methoxyethyl)-glycinyl)-amino)-phenyl)-thieno[2,3-d]pyrimidine-6-carboxamide] | 38.2 nM | 1230 nM |  |

Now from value to molecule, other results behind:

| EC50 (human LH receptor) | EC50 (human FSH receptor) | Structure (SMILES) | mean number of ova in the oviduct (immature female mice) |
| --- | --- | --- | --- |
| 7 nM | 101 nM | CCN(CCOC)CC(=O)Nc1cccc(-c2nc(SC)nc3sc(C(=O)NC(C)(C)C)c(N)c23)c1 [Example 4, tert-Butyl 5-amino-2-methylthio-4-(3-((N-ethyl-N-(2-methoxyethyl)-glycinyl)-amino)-phenyl)-thieno[2,3-d]pyrimidine-6-carboxamide] | 8 |
| 2.73 nM | 56.9 nM | CSc1nc(-c2cccc(NC(=O)CN(C)CCO)c2)c2c(N)c(C(=O)NC(C)(C)C)sc2n1 [Example 1, tert-Butyl 5-amino-2-methylthio-4-(3-((N-methyl-N-(2-hydroxyethyl)-glycinyl)-amino)-phenyl)-thieno[2,3-d]pyrimidine-6-carboxamide] | 8 |
| 5.42 nM | 806 nM | CSc1nc(-c2cccc(NC(=O)CNC(C)(C)CO)c2)c2c(N)c(C(=O)NC(C)(C)C)sc2n1 [Example 2, tert-Butyl 5-amino-2-methylthio-4-(3-((N-(1-hydroxy-2-methyl-prop-2-yl) -glycinyl)-amino)-phenyl)-thieno[2,3-d]pyrimidine-6-carboxamide] |  |
| 26.4 nM | 1000 nM | CSc1nc(-c2cccc(NC(=O)CNC(CO)CO)c2)c2c(N)c(C(=O)NC(C)(C)C)sc2n1 [Example 8] |  |
| 9.63 nM | 348 nM | COC(=O)[C@H](NCC(=O)Nc1cccc(-c2nc(SC)nc3sc(C(=O)NC(C)(C)C)c(N)c23)c1)C(C)C [Example 5, tert-Butyl 5-amino-2-methylthio-4-(3-((N-(R-1-methoxycarbonyl-2-methyl-prop-1-yl)-glycinyl)-amino)-phenyl)-thieno[2,3-d]pyrimidine-6-carboxamide] |  |
